Test results reported in PMC11904948, “Peptide‐Drug Conjugate for Therapeutic Reprogramming of Tumor‐Associated Macrophages in Breast Cancer” (Advanced Science, 2025).
Peptide text beside a SMILES is read from it. * marks the point of attachment. 5FAM = O=C1OC2(c3ccc(O)cc3Oc3cc(O)ccc32)c2ccc(C(=O)*)cc21; Ahx = NCCCCCC(=O)O

How the values were obtained:
[1] = design: method as in PMID 39575977; conditions: cited from earlier work
[2] = general statement, no reference given; cited from earlier work
Text: Verteporfin (V), is a photosensitizer and inhibitor of the activation of YAP.^[ [41] ^] […] Verteporfin, in its liposomal formulation Visudyne, is an approved drug for certain ophthalmological indications. In clinical trials for cancer therapy, Verteporfin is mostly used for photodynamic therapy (clinical trial identifiers: NCT03067051, NCT03033225, NCT04590664).

[3] = design: method as in PMID 36632235; conditions: cited from earlier work
[4] = Liver accumulation in the biodistribution study; format: in vivo, Balb/c mice; conditions: i.v., i.p. and oral, 30 nmol, 24 h circulation, immunostaining, n = 3 mice
Protocol: (§1) We subsequently determined the blood half‐life of FAM‐MACTIDE using i.v. and i.p. administration (Figure S1, Supporting Information).
(§2) When tumors reached ≈100 mm^3, 30 nmol of FAM‐MACTIDE or FAM‐mUNO was injected i.p., i.v. or through oral gavage and circulated for 24 h. […] Blocks were cryosectioned at 10 µm thickness on Superfrost+ slides (ThermoFisher Scientific, catalog no. J1800AMNZ) and stored at −20 °C or used instantly. Immunofluorescence staining was performed as described previously.^[ [5] ^] […] Slides were counterstained using 4,6‐diamidino‐2‐phenylindole (DAPI, 5 µg mL^−1 in PBS, Sigma–Aldrich, catalog no. D9542‐5MG). […] The colocalization analysis was performed using the “Coloc2” plugin in the Fiji program using Mandler's tM2 index. Values were obtained from at least three individual images per mouse per group and their average values were plotted. The FAM mean signal per CD206^+ cell analysis was measured using Fiji, taking the mean FAM signal, and dividing it by the number of CD206^+ cells. Average values were obtained from four images per mouse for n = 3 mice.

[5] = system: CD206; conditions: cited from earlier work
Text: Targeting CD206 is also promising for diagnostic purposes, as an increased number of CD206^+ cells in lymph nodes correlates with relapse onset in some cancers.^[ [6] ^] Most synthetic compounds designed to target CD206 utilize mannose as the recognition moiety.

[6] = Peptide stability in 4T1 tumor lysate (LC-MS); format: in vitro ADME; conditions: lysate of 4T1 orthotopic TNBC tumors (mouse), 30 µM peptide, 37 °C, aliquots 0, 10, 30, 60, 180, 1440 min
Protocol: Figure 3 MACTIDE has higher affinity and proteolytic stability than mUNO. A) QCM experiment of MACTIDE, mUNO, and control peptides at a final concentration of 10 µM in PBS on multilayers of PAH/CD206 or control multilayers of PAH/BSA. The black arrow indicates when the peptides were added, blue and red arrows indicate when the washing step with PBS started. B) Integrity of FAM‐MACTIDE and FAM‐mUNO measured by LC‐MS at different time points after incubation of peptides with lysate derived from a 4T1 tumor.
We next evaluated the stability of fluorescein (FAM)‐MACTIDE against proteases from breast tumors. To this end, we incubated both FAM‐MACTIDE and FAM‐mUNO with a tumor lysate obtained from 4T1 orthotopic TNBC tumors using different timepoints and evaluated the integrity of the peptide using liquid chromatography‐mass spectrometry (LC‐MS). We observed that the half‐life of FAM‐MACTIDE in this tumor lysate increased 5‐fold with respect to FAM‐mUNO (Figure 3B).
For peptide stability measurements, 200 µL of freshly prepared tumor lysate was mixed with 50 µL of PBS (as control), 30 µM of FAM‐mUNO, or 30 µM of FAM‐MACTIDE and incubated at 37 °C. 40 µL aliquots were taken at 0, 10, 30, 60, 180 and 1440 min. 80 µL of methanol was added to each aliquot and it was immediately stored at −80 °C until analysis later on the same or the following day. […]

[7] = Blood half-life by plasma fluorescence; format: in vivo, mice; conditions: i.v. and i.p., 30 nmoles, plasma fluorescence in FAM channel, n = 3; compared with FAM-mUNO values of ref 5
Text: We subsequently determined the blood half‐life of FAM‐MACTIDE using i.v. and i.p. administration (Figure S1, Supporting Information). […] Importantly, we observed low liver accumulation with these administration routes for both peptides (Figure S2, Supporting Information).
Figure S1.: Pharmacokinetics of i.p. and i.v. administered FAM-MACTIDE (30 nmoles) analyzed by detecting plasma fluorescence in the FAM channel at different timepoints (n=3).

[8] = system: CD206^+ TAM; assay: In vivo homing to CD206+ TAM in orthotopic 4T1 tumor-bearing mice; design: species or system Balb/c mice; conditions: 30 nmol, 24 h circulation
Protocol: as §1
Thirty nmol of FAM‐MACTIDE or FAM‐mUNO were administered i.v. (A), i.p. (B), or orally (C) and left to circulate for 24 h. After 24 h, mice were sacrificed, and the organs were collected, fixed, cryoprotected, sectioned, and immunostained for FAM (shown in green) and CD206 (shown in red). The CD206/FAM colocalization indices were calculated from representative images from n = 3 tumors, using Fiji (Mandler's tM2 index) and the signal intensity per CD206^+ TAM (i.p. administration) was quantified using ImageJ (B). Scale bars = 100 µm. ^* p ≤ 0.05, ^** p ≤ 0.01 (Anova one‐way fisher LSD).
as §2

## Verteporfin
[1]
  cell specificity of free Verteporfin: not cell‐specific
[2]
  solubility in water: insoluble in water
[3]
  cardiotoxicity in vivo: cardiotoxicity

## C[C@H](NC(=O)CNC(=O)[C@@H]1CCCN1C(=O)[C@H](CO)NC(=O)[C@H](CS)NC(=O)CCCCCNC(=O)c1ccc2c(c1)C(=O)OC21c2ccc(O)cc2Oc2cc(O)ccc21)C(=O)N[C@@H](CCCCN)C(=O)O [FAM‐mUNO, reference compound] ({5FAM-Ahx}-CSPGAK-OH)
[4]
  liver accumulation: does not accumulate in the liver

## OC[C@H]1OC(O)[C@@H](O)[C@@H](O)[C@@H]1O (stereo partly drawn) [mannose]
[5]
  affinity of mannose (CD206 recognition moiety): millimolar range

## FAM‐Ahx‐G(CTKSIPPIC)SPGAK‐OH (disulfide) [FAM‐MACTIDE, carboxyfluorescein-labelled MACTIDE]
[6]
  half‐life in tumor lysate, fold increase with respect to FAM‐mUNO: 5 fold
[7]
  blood half‐life: equal to those obtained previously for FAM‐mUNO
[4]
  liver accumulation: does not accumulate in the liver
[8]; i.p., 4T1 tumors, Fiji tM2 index, n = 3 tumors
  CD206/FAM colocalization: 80%
[8]; i.p., 4T1 tumors, ImageJ, n = 3 mice
  FAM intensity per CD206^+ TAM, fold higher than FAM‐mUNO: 10 fold
[8]; i.v., immunostaining of 4T1 tumor sections for FAM and CD206
  CD206^+ TAM targeting, intravenous: showed CD206^+ TAM targeting
[8]; oral gavage, immunostaining of 4T1 tumor sections
  CD206^+ TAM targeting, oral: targeted CD206^+ TAM
